Data set [1] deals with CHLA-90 neuroblastoma cells. Put plainly: DIMSCAN cytotoxicity assay, CHLA-90. The class given is cell-based. Conditions: for cell survival on addition of safingol to the retinoid: retinoid plus safingol 3:1 molar ratio vs retinoid alone; for Combination Index (C.I.) at LD99: PPMP isomer plus HPR at 1:1 micromolar ratio, +96-120 hours. On the procedure: (§1) Cytotoxicity is determined using the DIMSCAN assay system (R. Proffitt et al., Cytometry 24, 204-213 (1996); T. Frgala et al., Proc. AACR, 36, 303 (1995). The system employs digital imaging microscopy to quantify viable cells, which selectively accumulate fluorescein diacetate to become brightly fluorescent. The system is capable of measuring cytotoxicity over a 4-5 log dynamic range by quenching the residual fluorescence of dead and dying cells with eosin Y and quantifying the total fluorescence of viable cells using digital thresholding. Measured fluorescence is directly proportionate to the number of viable cells. A comparison of the total fluorescence of a drug-treated cell population to the fluorescence of a similar number of untreated cells yields a survival fraction. In brief, 5000 to 10,000 SK-N-RA neuroblastoma cells/well are replicate plated into 60 wells of a 96-well tissue culture plate in 0.1 cc media and allowed to attach overnight. Drug(s) are then added in 0.05 cc media to the final concentrations indicated. There are 12 wells treated per drug concentration. Twelve wells receive drug-vector only to the appropriate final concentration and serve as controls for the plate. Cells are incubated for 96-120 hours at 37° C. in 5% CO2. Fluorescein diacetate is then added to each well in 0.05 cc media to a final concentration of 8 microgram/cc. Cells are incubated for a further 15 minutes at 37° C. and 0.03 cc of 0.5% eosin Y is added to each well. Total fluorescence of viable cells is then measured by digital imaging microscopy.
(§2) Methods. Cells were added in 100 μL whole medium per well to 96-well microplates for DIMSCAN cytotoxicity assay as previously described. Cell lines used were the neuroblastoma cell lines CHLA-90 and LAN-6. At Time=0, either all-trans-retinoic acid (ATRA), 13-cis-retinoic acid (13-cis-RA) or a combination of retinoid plus safingol at a 3:1 molar ratio were added in 50 μL whole medium. Plates were incubated and assayed for cytotoxicity by DIMSCAN assay at +120 for CHLA-90 cells and+144 hours for LAN-6 cells.
Methods. To determine the manner in which 4-HPR or HPR+safingol induced cell death in neuroblastoma cells, morphological evidence of apoptosis and/or necrosis was assessed in CHLA-90 cells in the presence or absence of a specific as inhibitor of apoptosis, the neural cell-penetrant, pan-caspase enzyme inhibitor, BOC-d-fink (Enzyme Systems Products, Livermore, Calif.). […] CHLA-90 cells were plated in duplicate in whole medium in Lab Tek chamber slides (Nunc, Naperville, Ill.), allowed to attach for 24 hours, and then treated in the presence or absence of BOC-d-fink (40 μM) for one hour prior to treatment with HPR (10 μM). Control cells were treated with vehicle solvents of 0. 1% ethanol (4-HPR) and/or 0.2% DMSO (BOC-d-fink). Morphological features of apoptosis (DNA condensation and/or apoptotic bodies) were visualized in undetached cells at +24 or +48 hours using blue nuclear fluorescence induced by the supravital DNA stain Hoechst 33342 (10 μg/ml for 30 mins at 37° C.), while necrotic cells and advanced apoptotic cells were recognized by red fluorescent staining with propidium iodide (0.5 μM/ml). Red fluorescently-staining cells with condensed nuclear remnants were scored as apoptotic cells. For cells assayed at +48 hours, additional BOC-d-fink (40 μM) or appropriate control vehicle was added at +24 hours. Cells were observed using filters appropriate for each dye sequentially on an Olympus Vanox epifluorescence microscope. Mutiple random fields of cells (of ˜100-500 cells each) were counted and photographed for viable cells, apoptotic cells, and necrotic cells. To further examine cells treated with HPR, cytotoxicity assays were performed on CHLA-90 cells pretreated with or without 40 μM BOC-d-fmk for one hour prior to the addition of 4-HPR (3-10 μM) and assayed at +24 hours by DIMSCAN assay to assess the effect of caspase inhibition on viability. […]

Data set [2] relates to LAN-6 neuroblastoma cells. Put plainly: DIMSCAN cytotoxicity assay, LAN-6. The class given is cell-based, human. Conditions: +144 hours; for cell survival on addition of safingol to the retinoid: retinoid plus safingol 3:1 molar ratio vs retinoid alone. On the procedure:
as §1, with “A comparison of the total fluorescence of a drug-treated cell population to the fluorescence of a similar number of untreated cells yields a survival fraction.” left out
as §2

Data set [3] concerns Neuro2a neuroblastoma cells. Conditions: cited from earlier work.
A further data set has as its system CHLA-90 cells. Put plainly: Flow cytometry sub G0/G1 DNA content, CHLA-90. Conditions: BOC-d-fmk 40 μM, HPR 10 μM, +24 hours. The class given is cell-based, human.
Data set [4] deals with SK-N-RA neuroblastoma cells. The data set is described as follows: DIMSCAN cytotoxicity assay, SK-N-RA. The format is cell-based. Conditions: for Combination Index (C.I.) at LD99: PPMP isomer plus HPR at 1:1 micromolar ratio, +96-120 hours. On the procedure: as §1
As reported above, we have succeeded in increasing the cytotoxicity of 4-HPR through inhibition of several ceramide-related pathways. Most of the inhibitors used have been only studied in vitro. […]
Methods. […] Cytotoxocity is expressed as the fraction of cells surviving (Survival Fraction, S.F.). […] Cytotoxic synergy was analyzed by Combination Index (C.I.) analysis calculated at the dose lethal to 99% of exposed cells (LD99). Statistical analysis of the differences in mean cytotoxicity was evaluated by the unpaired, two-sided Student's t test.

The conditions of data set [5]: Phase I; one hour infusion at 120 mg/m^2; cited from earlier work.
Another data set concerns MCF7/GCS cells. Put plainly: DIMSCAN cytotoxicity assay, MCF7/GCS tet OFF vs tet ON. The format is cell-based, human. Conditions: 96 hours, P<0.005 at >6 μM HPR, safingol 0-4 μM. An excerpt: We have shown that HPR generates ceramide in neuroblastoma tumor cell lines in a dose- and time-depenent manner (B. Maurer et al., J. Natl. Cancer Inst. (1999)(in press)). Glucosylceramide (GC) is a nontoxic metabolite of ceramide. Ceramide is converted into glucosylceramide by the action of glucosylceramide synthase (GCS). Glucosylceramide synthase (GCS) has been transfected into human MCF7 breast cancer cells in a tetracycline-inducible expression construct in the MCF7/GCS cell line (Y. Liu et al., J. Biol. Chem. 274:1140-46 (1999)). […] We have exposed MCF7/GCS cells to HPR, safingol and HPR+safingol in the absence, and in the presence, of doxycycline.
Methods. MCF7/GCS cells were plated and incubated in RPMI medium with 10% fetal bovine serum and 200 microgram/ml Hygromycin B (tet OFF) for DIMSCAN cytotoxicity assays as previously described. To increase GCS expression, MCF7/GCS cells were also incubated in the above medium with 3 microgram/ml doxycycline (tet ON) for three days prior to replating them for DIMSCAN cytotoxicity assay. DIMSCAN assays with doxycycline-induced (tet ON) cells also included 3 microgram/ml doxycycline in the medium. Both “tet OFF” and “tet ON” MCF7/GCS cells were exposed to HPR, safingol and HPR+safingol (3:1 molar ratio) for 96 hours and assayed for survival fraction by DIMSCAN as previously described.

Molecules are shown by their SMILES.

`CC1=C(/C=C/C(C)=C/C=C/C(C)=C\C(=O)O)C(C)(C)CCC1` [13-cis-RA, 13-cis-retinoic acid]: the “cell survival on addition of safingol to the retinoid” value in data set [1] (+120 hours) and in data set [2] was “significant decrease in the cell survival” in each case.

As for `CC1=C(/C=C/C(C)=C/C=C/C(C)=C/C(=O)O)C(C)(C)CCC1` [ATRA, all-trans-retinoic acid], the “cell survival on addition of safingol to the retinoid” value in data set [1] (+120 hours) and in data set [2] was “significant decrease in the cell survival” each time. The “increase in the level of ceramide” value in data set [3] is given as 1.5 ×.

For `COC(=O)CC(NC(=O)OC(C)(C)C)C(=O)CF` (stereo not drawn) [BOC-d-fmk], the “sub G0/G1 DNA-fragmentation induced by HPR” value with CHLA-90 cells was “abrogated”.

For `CCCCCCCCCCCCCCCC(=O)NC(CN1CCOCC1)C(O)c1ccccc1` [D,L-erythro-PPMP, 1-phenyl-2-palmitoylamino-3-morpholino-1-propanol], the “Combination Index (C.I.) at LD99” value in data set [1] was 0.18; in data set [4] it was less than 0.06.

On to `CCCCCCCCCCCCCCCC(=O)NC(CN1CCOCC1)C(O)c1ccccc1` [D,L-threo-PPMP, 1-phenyl-2-palmitoylamino-3-morpholino-1-propanol], for which the “Combination Index (C.I.) at LD99” value is listed as less than 0.09 in data set [1] and less than 0.01 in data set [4].

As to `CCCCCCCCCCCCC/C=C/[C@@H](O)[C@H](CO)N(C)C` [N-DMS, d-erythro-N,N-dimethylsphingosine], in data set [4] (5 μM fenretinide fixed plus 5 μM PPMP fixed plus N-DMS, 20% O2), the “cytotoxicity when added to fenretinide and PPMP” value is listed as “increased cytotoxicity”.

With `CCCCCCCCCCCCCCC[C@H](O)[C@@H](N)CO` [Safingol, (2S,3S)-2-amino-1,3-octadecanediol], in data set [5], the reported toxicities entry is listed as “no reported toxicities” and the “serum levels during infusion” value was 3 µM. Also, in the data set with MCF7/GCS cells, the “change of cytotoxicity in tet ON (doxycycline, GCS induced) compared to tet OFF cells” value is “no significant decrease”. The “Survival Fraction” value in data set [1] (safingol alone at 4 μM, +120 hours) came out at 0.11. For the same compound, the “Survival Fraction” value in data set [2] (safingol alone at 4 μM) was 0.39.

The values are drawn from US6368831B1, “Treatment of hyperproliferative disorders” (Childrens Hospital Los Angeles, priority 1998, dated 2002).
